Measured values taken from patent US8647615B1, “Methods for attracting honey bee parasitic mites” (The United States of America, as represented by the …, priority 2010, dated 2014).
“Also recorded” adds a separate entry of the source.

How the values were obtained:
[1] = tested on: phoretic mites on adult bees; assay: bottom screen assay: mite-infested adult worker bees in screen bottomed jar over water trap; type: in vivo, Varroa mites; conditions: 20 minutes; for mites that fell off bees versus control jars: 200 mite-infested bees per jar, 100 μL, three replicates, control methylene chloride; for mite activity level versus control treatments: exposure to acid volatiles
Protocol: We then performed a bottom screen assay to assess the response of phoretic mites on adult bees to the acid volatiles. We placed 200 mite-infested adult worker bees in a screen bottomed jar inverted over a water trap. A total of nine jars were used, three replicates of each treatment. The mites and bees were exposed to either butyric acid, isobutyric acid, or a control solvent (methylene chloride) (100 μL) for 20 minutes. Mites that moved off the bees fell into the water trap below. At the end of the experiment, the bees were washed with alcohol to estimate the number of mites that remained on the bees.

Varroa mite forelegs = assay: coupled gas chromatography and electroantennographic detection (GC-EAD) with mite forelegs; set-up: species or system Varroa mites; conditions: standard with compounds at equal concentrations
From the text: To determine if mites can detect the acid compounds we used coupled gas chromatography and electroantennographic detection (GC-EAD) and electroantennography (EAG). […] A detecting electrode was set up with electrode gel on each contact and then a mite was dissected so that both of its forelegs could be set across the electrodes. The electrode gel provides both a better contact and keeps the forelegs from drying out. For GC-EAD we used a standard containing our two attractive acids along with other short chain acids (i.e., acetic acid, propanoic acid, and hexanoic acid) and common bee odors (iso-pentyl acetate, delta-3-carene, E-(β)-ocimine) at equal concentrations. […] We used EAG to determine the responses of forelegs to the individual detected compounds. […] The dashed line in FIG. 6 represents the level of the control response.

[2] = tested on: Free-roaming (off the adult bee) mites; assay: four choice arena bioassay; type: in vivo, Varroa mites; conditions: for mite attraction: movement toward odor source (contact or position at end of bioassay): 5% by volume in distilled water vs three water controls, 5 minutes, expected value 25%; for arrestant (stopping) behavior: four choice arena, 5% by volume in distilled water
From the text: (§1) We developed a four choice bioassay to evaluate the responses of mites to highly concentrated volatiles released at very close distances (7 mm). Our choice arena consisted of four odor sources presented directly beneath a permeable mesh floor. Each odor source was introduced by capillary release from a capillary tube, the volatiles diffused up through the permeable mesh floor. Free-roaming (off the adult bee) mites were introduced onto a vertical pin placed in the center of the arena. […] The expected value for response is 25% as indicated by the dashed line. […] Free-roaming mites were also exposed to these chemicals under the microscope to visually evaluate mite detection, attraction, and arrestant responses to the acid volatiles.

Free-roaming mites = assay: visual evaluation of free-roaming mites under the microscope; type: in vivo, Varroa mites; conditions: for excitation and search behaviors (questing and casting): acid volatiles from capillary tubes; for movement relative to acid droplets: free-roaming mites
From the text: as §1, with “Once we determined that the mites could perceive and respond to the acid volatiles, we examined whether these acids acted as attractants or repellents. We” for “We”

mites [3] = assay: two choice diffusion bioassay, Ethovision tracking; type: in vivo, Varroa mites; conditions: 5% butyric acid in water vs water, 8 mites, p<0.001
From the text: (§2) This experiment used the tracking software Ethovision XT (Noldus Information Technology, Leesburg Va.) to monitor the position of mites in an arena. The arena was a four quadrant petri dish 7.5 cm in diameter, the sides of the dish were ground down so that the separations were all the same height as the edges. A plexiglass ring, 7.5 cm outside diameter 2.5 cm high, with 11 micron Nitex fabric attached to the bottom contained the mite and separated the mite from the odor sources but allowed the odors to diffuse through the fabric. The petri dish quadrants were filled either with 5% butyric acid in water, or water only as a control. Opposite quadrants were filled with the same material so that the bottom of each quadrant was completely covered with liquid. This ensured equal surface areas for diffusion of the solute and solvent. Each experiment was conducted with 8 mites. […] A second set of no choice assays was also performed, these assays used an un-separated petri dish to hold the 5% acid solution and the movements of the mites over the solution were monitored.

mites [4] = assay: no choice test with Ethovision analysis; type: in vivo, Varroa mites
From the text: as §2

**Q.** What does the source list for `CCCC(=O)O` [butyric acid]?
**A.** mites that fell off bees versus control jars [1]: significantly more mites fell off bees; mite activity level versus control treatments [1]: much higher activity levels; detection by mite forelegs (GC-EAD) (Varroa mite forelegs): excited by; mite attraction: movement toward odor source (contact or position at end of bioassay) [2]: significantly more likely to move in the direction of; arrestant (stopping) behavior [2]: did not display any arrestant (stopping) behavior; excitation and search behaviors (questing and casting) (Free-roaming mites): showed excitation and search behaviors; movement relative to acid droplets (Free-roaming mites): moved toward and occasionally into acid droplets; time spent in zone over odor source versus control zones (mites [3]): spent significantly more time; time spent in zone over odor source versus control zones (mites [3]; listed as Butyric Acid): more time is spent; movement (speed, stopping, time moving) versus water control (mites [4]; 5% acid solution, un-separated petri dish): significantly less time moving; also recorded: moving slower and stopping more often; time spent in zone/arena over the acid versus water (mites [4]; 5% acid solution, un-separated petri dish, p<0.001): significantly more time; also recorded: spent more time in the arena; arrestant behaviors on sustained exposure (mites [4]; EthoVision diffusion bioassays, sustained exposure to high concentrations of volatiles): caused arrestant behaviors

**Q.** With `CC(=O)OCCC(C)C` [iso-pentyl acetate] as the compound, how does the “detection by mite forelegs (GC-EAD)” value (Varroa mite forelegs) read?
**A.** The value was “did not appear to be detected”.

**Q.** How did the “detection by mite forelegs (GC-EAD)” value (Varroa mite forelegs) turn out when `C=C/C(C)=C/CC=C(C)C` [E-(β)-ocimine] was run?
**A.** The value was “did not appear to be detected”.

**Q.** How did the “detection by mite forelegs (GC-EAD)” value (Varroa mite forelegs) turn out when `CCCCCC(=O)O` [hexanoic acid] was run?
**A.** The value was “did not appear to be detected”.

**Q.** How did the “detection by mite forelegs (GC-EAD)” value (Varroa mite forelegs) turn out when `CC1=CCC2C(C1)C2(C)C` (stereo not shown) [delta-3-carene] was run?
**A.** The value was “did not appear to be detected”.

**Q.** With `CCC(=O)O` [propanoic acid] as the compound, how does the “detection by mite forelegs (GC-EAD)” value (Varroa mite forelegs) read?
**A.** The value was “did not appear to be detected”.

**Q.** Which “detection by mite forelegs (GC-EAD)” value (Varroa mite forelegs) does the source give for `CC(=O)O` [acetic acid] here?
**A.** The value was “could clearly detect”.

**Q.** For `CC(C)C(=O)O` [isobutyric acid], which “mites that fell off bees versus control jars” value [1] is on record?
**A.** Its value is “significantly more mites fell off bees”.

**Q.** And the “mite activity level versus control treatments” value [1]?
**A.** The value was “much higher activity levels”.

**Q.** What about the “detection by mite forelegs (GC-EAD)” value (Varroa mite forelegs) of the same compound?
**A.** The value was “excited by”.

**Q.** And the “mite attraction: movement toward odor source (contact or position at end of bioassay)” value [2]?
**A.** Its value is “significantly more likely to move in the direction of”.

**Q.** And the “arrestant (stopping) behavior” value [2]?
**A.** Its value is “did not display any arrestant (stopping) behavior”.

**Q.** What about the “excitation and search behaviors (questing and casting)” value (Free-roaming mites) of the same compound?
**A.** The value was “showed excitation and search behaviors”.

**Q.** What about the “movement relative to acid droplets” value (Free-roaming mites) of the same compound?
**A.** The value was “moved toward and occasionally into acid droplets”.
